Our source for the MIC values is US4331606A, “N-(Substituted chromone-3-carbonyl)-phenylglycine derivatives” (Eisai Co., Ltd., priority 1980, dated 1982).

The term MIC denotes the lowest concentration that inhibits growth of the organism. The low end stands for a more susceptible organism, the high end for a less susceptible organism.

Common to all, as to assay type: cell-based
One assay relates to Proteus morganii EP-14. As to the kind of experiment: Antibacterial Activity (MIC) against Proteus morganii EP-14. The conditions noted are these: Morganella morganii, EP14.
The test system of assay [1] is Pseudomonas aeruginosa EP-172. As to the kind of experiment: Antibacterial Activity (MIC) against Pseudomonas aeruginosa EP-172. The conditions noted are these: EP172.
For assay [2], the system named is Klebsiella pneumoniae EK-6. As to the kind of experiment: Antibacterial Activity (MIC) against Klebsiella pneumoniae EK-6. Particulars: EK6.
The test system of the next assay is Escherichia coli NIHJ. Description: Antibacterial Activity (MIC) against Escherichia coli NIHJ.
Assay [3] deals with Serratia marcescens ES-75. Description: Antibacterial Activity (MIC) against Serratia marcescens ES-75. The conditions noted are these: ES75.
The test system of assay [4] is Staphylococcus aureus 209-P. Description: Antibacterial Activity (MIC) against Staphylococcus aureus 209-P.

In brackets after ≈: the same amount, converted by molar mass.

As to `CCOC(=O)Oc1cc2occ(C(=O)N[C@@H](C(=O)N[C@@H]3C(=O)N4C(C(=O)O)=C(CSc5nnnn5CC(=O)O)CS[C@H]34)c3ccc(O)cc3)c(=O)c2cc1OC(=O)OCC` [Preparatory Example 2 (A), 7β-[D-2-{6,7-bis(ethoxycarbonyloxy)chromone-3-carboxamido}-2-(4-hydroxyphenyl)acetamido]-3-[(1-carboxymethyl-5-tetrazolyl)thiomethyl]-3-cephem-4-carboxylic acid], the MIC in the assay with Proteus morganii EP-14 was 1.56 µg/mL (≈ 1.79 µM); in assay [1], 0.8 µg/mL (≈ 0.92 µM); in assay [2] it was no less than 0.05 µg/mL; in the assay with Escherichia coli NIHJ, 0.4 µg/mL (≈ 0.46 µM); in assay [3], no less than 0.05 µg/mL; in assay [4], 6.25 µg/mL (≈ 7.19 µM).
Consider `O=C(O)Cn1nnnc1SCC1=C(C(=O)O)N2C(=O)[C@@H](NC(=O)[C@H](NC(=O)c3coc4cc(O)c(O)cc4c3=O)c3ccc(O)cc3)[C@H]2SC1` [Preparatory Example 2 (B), 7β-[D-2-(6,7-Dihydroxychromone-3-carboxyamido)-2-(4-hydroxyphenyl)acetamido]-3-[(1-carboxymethyl-5-tetrazolyl)thiomethyl]-cephem-4-carboxylic acid], for which the minimum inhibitory concentration (MIC) in the assay with Proteus morganii EP-14 is 12.5 µg/mL (≈ 17.2 µM); in assay [1], 0.8 µg/mL (≈ 1.1 µM); in assay [2] it was no less than 0.1 µg/mL; with Escherichia coli NIHJ, 0.4 µg/mL (≈ 0.551 µM); in assay [3], no less than 0.1 µg/mL; in assay [4] it was 3.13 µg/mL (≈ 4.31 µM).
